How the values were obtained:
TP53-binding protein 1 [1] = target: T1, TP53-binding protein 1 (Homo sapiens, UniProt Q12888); test: Inhibition of recombinant human N-terminal His6-tagged 53BP1 TTD (1484 to1603 residues) expressed in Escherichia coli BL21 (DE3) cells using Biotin-H4K2Ome2 as substrate preincubated for 30 mins followed by substrate addition and measured after 30 mins by AlphaScreen assay
TP53-binding protein 1 [2] = target: T1, TP53-binding protein 1; test: Binding affinity to recombinant human N-terminal His6-tagged lysine dye- labeled 53BP1 TTD (1484 to1603 residues) expressed in Escherichia coli BL21 (DE3) cells incubated for 10 mins by MST assay
TP53-binding protein 1 [3] = target: T1, TP53-binding protein 1; test: Binding affinity to recombinant human N-terminal His6-tagged 53BP1 TTD (1484 to1603 residues) expressed in Escherichia coli BL21 (DE3) cells by SPR analysis

T1 sequence (Q12888 whole entry, the tested form may be a part): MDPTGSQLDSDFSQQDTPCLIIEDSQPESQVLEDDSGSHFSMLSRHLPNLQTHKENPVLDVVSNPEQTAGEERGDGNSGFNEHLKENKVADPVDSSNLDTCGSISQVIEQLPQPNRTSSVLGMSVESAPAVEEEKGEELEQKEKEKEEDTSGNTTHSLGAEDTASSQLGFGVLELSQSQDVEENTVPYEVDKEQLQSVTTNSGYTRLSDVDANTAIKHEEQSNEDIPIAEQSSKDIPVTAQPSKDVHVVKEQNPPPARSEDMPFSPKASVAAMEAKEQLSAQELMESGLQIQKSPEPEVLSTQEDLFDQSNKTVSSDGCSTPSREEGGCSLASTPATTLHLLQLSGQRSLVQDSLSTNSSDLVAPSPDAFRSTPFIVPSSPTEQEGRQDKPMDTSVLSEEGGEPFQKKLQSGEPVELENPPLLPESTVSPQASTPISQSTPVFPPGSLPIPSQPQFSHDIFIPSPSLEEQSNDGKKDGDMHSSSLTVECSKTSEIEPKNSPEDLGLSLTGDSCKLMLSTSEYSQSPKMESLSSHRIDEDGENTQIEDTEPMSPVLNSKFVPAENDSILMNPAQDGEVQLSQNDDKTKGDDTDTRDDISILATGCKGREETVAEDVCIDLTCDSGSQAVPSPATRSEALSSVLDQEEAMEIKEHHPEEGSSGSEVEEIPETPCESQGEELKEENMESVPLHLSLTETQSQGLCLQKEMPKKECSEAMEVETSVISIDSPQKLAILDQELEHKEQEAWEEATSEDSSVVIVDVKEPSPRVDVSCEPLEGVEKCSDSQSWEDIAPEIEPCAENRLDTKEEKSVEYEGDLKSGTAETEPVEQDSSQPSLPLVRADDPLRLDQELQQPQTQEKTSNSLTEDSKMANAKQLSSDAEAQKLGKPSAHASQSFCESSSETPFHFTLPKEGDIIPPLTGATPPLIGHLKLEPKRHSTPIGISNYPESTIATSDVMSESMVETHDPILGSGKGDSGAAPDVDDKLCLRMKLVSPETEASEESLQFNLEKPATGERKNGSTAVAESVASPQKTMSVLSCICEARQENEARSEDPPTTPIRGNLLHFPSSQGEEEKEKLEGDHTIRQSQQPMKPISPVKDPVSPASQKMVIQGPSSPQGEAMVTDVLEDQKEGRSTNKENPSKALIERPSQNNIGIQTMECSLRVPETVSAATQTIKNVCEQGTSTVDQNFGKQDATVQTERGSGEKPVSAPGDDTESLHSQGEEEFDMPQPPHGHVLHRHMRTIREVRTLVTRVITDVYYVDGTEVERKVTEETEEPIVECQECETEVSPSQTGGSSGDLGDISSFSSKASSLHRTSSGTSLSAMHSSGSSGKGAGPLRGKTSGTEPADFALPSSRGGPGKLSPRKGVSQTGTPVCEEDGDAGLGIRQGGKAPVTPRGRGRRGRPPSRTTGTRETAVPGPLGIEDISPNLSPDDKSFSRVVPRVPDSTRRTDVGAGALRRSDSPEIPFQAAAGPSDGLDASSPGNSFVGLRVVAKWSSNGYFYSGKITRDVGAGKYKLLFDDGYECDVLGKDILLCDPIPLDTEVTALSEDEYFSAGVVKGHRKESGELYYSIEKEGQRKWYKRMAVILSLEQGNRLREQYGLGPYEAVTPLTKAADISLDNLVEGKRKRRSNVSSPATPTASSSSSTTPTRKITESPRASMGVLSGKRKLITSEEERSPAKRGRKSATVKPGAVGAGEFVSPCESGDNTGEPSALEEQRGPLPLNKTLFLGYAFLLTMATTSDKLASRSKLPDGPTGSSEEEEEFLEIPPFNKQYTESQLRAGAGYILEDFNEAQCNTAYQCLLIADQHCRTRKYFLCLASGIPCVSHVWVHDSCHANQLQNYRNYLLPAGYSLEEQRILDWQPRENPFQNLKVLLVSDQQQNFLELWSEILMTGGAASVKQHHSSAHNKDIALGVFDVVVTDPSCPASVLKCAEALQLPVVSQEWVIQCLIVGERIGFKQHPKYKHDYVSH

SMILES	IC50 (TP53-binding protein 1 [1]) [µM]	Kd (TP53-binding protein 1 [2]) [µM]	Kd (TP53-binding protein 1 [3]) [µM]
CCN(CC)c1cc(C)c2cc(NC(=O)/C=C/c3ccco3)ccc2n1	1.69	2.69	2.7
Cc1cc2cc(NC(=O)/C=C/c3ccco3)ccc2[nH]1	22.3		
CCN(CC)c1cc(C)c2cc(N(C)C(=O)/C=C/c3ccco3)ccc2n1	17.8		
Cc1cc(N(C)C)nc2ccc(NC(=O)/C=C/c3ccco3)cc12	4.2		
CCN(CC)c1cc(C)c2cc(NC(=O)/C=C/c3ccc4ccoc4c3)ccc2n1	> 50		
CN(C)c1ccc2cc(NC(=O)/C=C/c3cccc4cccnc34)ccc2n1	> 50		
Cc1cc(N2CCCCC2)nc2ccc(NC(=O)/C=C/c3ccco3)cc12	15.1		
O=C(/C=C/c1ccco1)Nc1cccc2ncccc12	> 50		
CCN(CC)c1cc(C)c2cc(NC(=O)/C=C/c3ccccn3)ccc2n1	31.3		
